One may read the EC50 as the concentration needed to bring the measured effect to its halfway point.

Chain of soluble guanylate cyclase (human GUCYA3 and GUCYB3) overexpressed in CHO cells (Q02108 whole entry partner): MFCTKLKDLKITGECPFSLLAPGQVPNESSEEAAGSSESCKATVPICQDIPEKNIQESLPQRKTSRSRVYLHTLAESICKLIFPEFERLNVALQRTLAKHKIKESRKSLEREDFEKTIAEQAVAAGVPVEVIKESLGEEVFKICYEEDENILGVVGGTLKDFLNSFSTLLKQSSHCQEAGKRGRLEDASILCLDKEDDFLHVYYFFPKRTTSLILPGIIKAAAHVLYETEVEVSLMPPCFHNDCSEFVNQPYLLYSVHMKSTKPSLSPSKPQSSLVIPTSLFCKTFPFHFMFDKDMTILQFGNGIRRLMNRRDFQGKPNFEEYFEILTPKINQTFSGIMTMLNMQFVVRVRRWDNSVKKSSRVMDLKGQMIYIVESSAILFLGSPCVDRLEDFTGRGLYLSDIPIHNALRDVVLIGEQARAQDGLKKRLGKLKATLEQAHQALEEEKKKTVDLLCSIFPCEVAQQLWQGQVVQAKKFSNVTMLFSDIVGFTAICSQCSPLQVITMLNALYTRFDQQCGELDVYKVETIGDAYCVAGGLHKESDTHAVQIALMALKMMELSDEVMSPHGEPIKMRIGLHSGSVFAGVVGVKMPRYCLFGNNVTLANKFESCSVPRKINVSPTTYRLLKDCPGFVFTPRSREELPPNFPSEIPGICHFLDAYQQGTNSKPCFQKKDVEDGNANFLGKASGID
Chain of soluble guanylate cyclase (human GUCYA3 and GUCYB3) overexpressed in CHO cells (Q02153 whole entry): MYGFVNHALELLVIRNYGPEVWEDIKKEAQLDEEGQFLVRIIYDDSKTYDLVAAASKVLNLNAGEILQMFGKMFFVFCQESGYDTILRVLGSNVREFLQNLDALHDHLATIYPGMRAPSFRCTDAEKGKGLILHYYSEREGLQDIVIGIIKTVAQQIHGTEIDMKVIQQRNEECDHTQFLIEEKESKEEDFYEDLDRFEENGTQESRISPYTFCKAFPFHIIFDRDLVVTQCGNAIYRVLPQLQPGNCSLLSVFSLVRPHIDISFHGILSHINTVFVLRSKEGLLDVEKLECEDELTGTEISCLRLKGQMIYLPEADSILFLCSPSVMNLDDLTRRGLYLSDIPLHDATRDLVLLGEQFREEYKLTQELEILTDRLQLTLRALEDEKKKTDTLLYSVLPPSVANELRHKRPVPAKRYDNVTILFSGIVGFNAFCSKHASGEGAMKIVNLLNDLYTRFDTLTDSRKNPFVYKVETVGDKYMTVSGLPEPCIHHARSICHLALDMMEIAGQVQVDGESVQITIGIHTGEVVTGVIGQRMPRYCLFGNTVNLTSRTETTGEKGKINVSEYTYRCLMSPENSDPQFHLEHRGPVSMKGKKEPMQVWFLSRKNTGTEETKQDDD

The assay addresses soluble guanylate cyclase (human GUCYA3 and GUCYB3) overexpressed in CHO cells (Homo sapiens (Human), UniProt Q02108+Q02153). The assay is described as follows: CHO cellular assay (cGMP production, Cisbio cGMP HTRF kit). The class given is cell-based. To be noted: CHO GUCY clone 8E10, cGMP production, assay buffer with 1 mM IBMX and 20 uM ODQ, 1 h room temperature; minimum quantification limit 0.5 nM (listed 0.5 nM means ≤0.5 nM); read-out: EC50. In short, it runs like this:
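Stable CHO-K1 clone 8E10 expressing human sGC (GUCYA3/GUCYB3), 3000 cells/well, exposed 1 h at room temperature to activators in HBSS, 0.1% BSA, 1 mM IBMX, 20 uM ODQ, 0.5% DMSO final. cGMP was measured by HTRF and interpolated from a standard curve. EC50 came from a 4-parameter sigmoidal fit.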
For orientation: TR-FRET usually uses a lanthanide donor and a delayed reading to cut background.
On to `CCc1cc(CC2CCc3cccc(-c4cccc(-n5ncc(C(=O)O)c5CC)n4)c32)ccc1C1CCN(C(=O)[C@H](C)O)CC1` (single isomer, unassigned; (-)) [Example 39. b). (−)], for which the EC50 was 1 nM.

In the case of `CCc1cc(CC2CCc3cccc(-c4cccc(-n5ncc(C(=O)O)c5CC)n4)c32)ccc1C1CCN(C(=O)OC)CC1` (single isomer, unassigned; (-)) [Example 41. b). (−), (−)-5-ethyl-1-(6-(3-(3-ethyl-4-(1-(methoxycarbonyl)piperidin-4-yl)benzyl)-2,3-dihydro-1H-inden-4-yl)pyridin-2-yl)-1H-pyrazole-4-carboxylic acid], the EC50 is 18 nM. The result for `CCc1c(C(=O)O)cnn1-c1cccc(-c2cccc3c2C(Cc2ccc(C4CCN(C(=O)OC)CC4)cc2C)CC3)n1` (single isomer, unassigned; (-)) [Example 42. b). (−), (−)-5-ethyl-1-(8-(3-(4-(1-(methoxycarbonyl)piperidin-4-yl)-2-methylbenzyl)-2,3-dihydro-1H-inden-4-yl)pyridin-2-yl)-1H-pyrazole-4-carboxylic acid] reads 93 nM.

Turning to `Cc1cc(C2CCN(C(=O)C3CCC3)CC2)ccc1NC1CCc2cccc(-c3cccc(-n4ncc(C(=O)O)c4C)n3)c21` (single isomer, unassigned; (-)) [Example 45b], the EC50 came to 3.5 nM.

For the compound `Cc1cc(C2CCN(C(=O)[C@H](C)O)CC2)ccc1NC1CCc2cccc(-c3cccc(-n4ncc(C(=O)O)c4C)n3)c21` (single isomer, unassigned; (-)) [Example 47b], the EC50 stood at 27 nM.

In the case of `CCc1nc(NC2CCc3cccc(-c4cccc(-n5ncc(C(=O)O)c5CC)n4)c32)ccc1C1CCN(C(=O)C2CC2)CC1` (single isomer, unassigned; (-)) [Example 63b, (−)-1-(6-(3-((5-(1-(Cyclopropanecarbonyl)piperidin-4-yl)-6-ethylpyridin-2-yl)amino)-2,3-dihydro-1H-inden-4-yl)pyridin-2-yl)-5-ethyl-1H-pyrazole-4-carboxylic Acid], the EC50 is 60 nM. The result for `Cc1cc(C2CCN(C(=O)C3CC3)CC2)ccc1OC1CCc2cccc(-c3cccc(-n4ncc(C(=O)O)c4C(F)(F)F)c3)c21` (single isomer, unassigned; (-)) [Example (−)-1. b), (−)-1-(3-(3-(4-(1-(cyclopropanecarbonyl)piperidin-4-yl)-2-methylphenoxy)-2,3-dihydro-1H-inden-4-yl)phenyl)-5-(trifluoromethyl)-1H-pyrazole-4-carboxylic acid] reads 10 nM. With `Cc1cc(C2CCN(C(=O)C3CC3)CC2)ccc1NC1CCc2cccc(-c3cccc(-n4ncc(C(=O)O)c4C(F)(F)F)n3)c21` (single isomer, unassigned; (-)) [Example (−)-8. b), (−)-1-(6-(3-((4-(1-(cyclopropanecarbonyl)piperidin-4-yl)-2-methylphenyl)amino)-2,3-dihydro-1H-inden-4-yl)pyridin-2-yl)-5-(trifluoromethyl)-1H-pyrazole-4-carboxylic Acid] the figure was 53 nM; with `Cc1cc(C2CCN(C(=O)C3CC3)CC2)ccc1O[C@H]1CCc2cccc(-c3cccc(-n4ncc(C(=O)O)c4C)c3)c21` [Example 2, (+)-(S)-1-(3-(3-(4-(1-(Cyclopropanecarbonyl)piperidin-4-yl)-2-methylphenoxy)-2,3-dihydro-1H-inden-4-yl)phenyl)-6-methyl-1H-pyrazole-4-carboxylic Acid], 1 nM; with `Cc1cc2c(c(-c3cccc(-n4ncc(C(=O)O)c4C(F)(F)F)n3)c1)C(Oc1ccc3c(c1)CCN(Cc1ccccn1)C3)CC2` (stereo not shown) [Example 5-1], 39 nM.

In the case of `Cc1cc2c(c(-c3cccc(-n4ncc(C(=O)O)c4C(F)(F)F)n3)c1)C(Oc1ccc(C3CCN(C(=O)C4CC4)CC3)cc1C)CC2` (stereo not shown) [Example 5-2], the EC50 came to 1 nM. As to `CCc1cc(O[C@H]2CCc3cccc(-c4cccc(-n5ncc(C(=O)O)c5C(F)(F)F)n4)c32)ccc1C1CCN(C(=O)C2CC2)CC1` [Example 5-3], the EC50 is at most 0.5 nM. With `Cc1cc(C2CCN(CC(F)(F)F)CC2)ccc1O[C@H]1CCc2cccc(-c3cccc(-n4ncc(C(=O)O)c4C(F)(F)F)n3)c21` [Example 5-4] the figure was 2 nM; with `Cc1cc(C2CCN(C(=O)C3CC3)CC2)ccc1O[C@H]1CCc2cccc(-c3cccc(-n4cc(C(=O)O)cn4)n3)c21` [Example 5-5], 2.4 nM; with `Cc1cc(C2CCN(C(=O)C3CC3)CC2)ccc1O[C@H]1CCc2cccc(-c3cccc(-n4ncc(C(=O)O)c4C)n3)c21` [Example 5-6], at most 0.5 nM. With `CCc1c(C(=O)O)cnn1-c1cccc(-c2cccc3c2[C@@H](Oc2ccc(C4CCN(C(=O)C5CC5)CC4)cc2C)CC3)n1` [Example 5-7] the figure was at most 0.5 nM; with `CCc1c(C(=O)O)cnn1-c1cccc(-c2cccc3c2[C@@H](Oc2ccc(C4CCN(CC(F)(F)F)CC4)cc2C)CC3)n1` [Example 5-8], 1 nM; with `CCc1cc(O[C@H]2CCc3cccc(-c4cccc(-n5ncc(C(=O)O)c5CC)n4)c32)ccc1C1CCN(C(=O)C2CC2)CC1` [Example 5-9], at most 0.5 nM. The result for `O=C(O)c1cnn(-c2cccc(-c3cccc4c3C(Nc3ccc(C5CCN(C(=O)C6CC6)CC5)cc3)CC4)n2)c1C(F)(F)F` (stereo not shown) [Example 11-2] reads 1 nM. In the case of `CCc1c(C(=O)O)cnn1-c1cccc(-c2cccc3c2C(Nc2ccc(C4CCN(CC(F)(F)F)CC4)cc2C)CC3)n1` (stereo not shown) [Example 11-3], the EC50 is 1.4 nM. Consider `O=C(O)c1cnn(-c2cccc(-c3cccc4c3N(Cc3ccc(C5CCN(C(=O)C6CC6)CC5)cc3)CC4)n2)c1C(F)(F)F` [Example 12, 1-(6-(1-(4-(1-(Cyclopropanecarbonyl)piperidin-4-yl)benzyl)indolin-7-yl)pyridin-2-yl)-5-(trifluoromethyl)-1H-pyrazole-4-carboxylic Acid], for which the EC50 stood at 1 nM. The result for `CCc1cc(CN2CCc3cccc(-c4cccc(-n5ncc(C(=O)O)c5C(F)(F)F)n4)c32)ccc1C1CCN(C(=O)C2CC2)CC1` [Example 13] reads at most 0.5 nM; that for `CCc1cc(CN2CCc3cccc(-c4cccc(-n5ncc(C(=O)O)c5CC)n4)c32)ccc1C1CCN(C(=O)C2CC2)CC1` [Example 14, 1-(6-(1-(4-(1-(Cyclopropanecarbonyl)piperidin-4-yl)-3-ethylbenzyl)indolin-7-yl)pyridin-2-yl)-5-ethyl-1H-pyrazole-4-carboxylic Acid], at most 0.5 nM; that for `CCc1cc(CN2CCc3cccc(-c4cccc(-n5ncc(C(=O)O)c5C(F)(F)F)n4)c32)ccc1C1CCN(CC(F)(F)F)CC1` [Example 15], 1.5 nM. With `CCc1cc(CN2CCc3cccc(-c4cccc(-n5ncc(C(=O)O)c5CC)n4)c32)ccc1C1CCN(CC(F)(F)F)CC1` [Example 16, 5-Ethyl-1-(6-(1-(3-ethyl-4-(1-(2,2,2-trifluoroethyl)piperidin-4-yl)benzyl)indolin-7-yl)pyridin-2-yl)-1H-pyrazole-4-carboxylic Acid] the figure was 3.5 nM. Regarding `CCc1c(C(=O)O)cnn1-c1cccc(-c2cccc3c2N(Cc2ccc(C4CCN(C(=O)[C@H](C)O)CC4)cc2C)CC3)n1` [Example 18, (S)-5-Ethyl-1-(6-(1-(4-(1-(2-hydroxypropanoyl)piperidin-4-yl)-2-methylbenzyl)indolin-7-yl)pyridin-2-yl)-1H-pyrazole-4-carboxylic Acid], the EC50 is 1.4 nM. With `CCc1c(C(=O)O)cnn1-c1cccc(-c2cccc3c2N(Cc2ccc(C4CCN(C(=O)C5CC5)CC4)cc2C)CC3)n1` [Example 21-2, 1-(6-(1-(4-(1-(Cyclopropanecarbonyl)piperidin-4-yl)-2-methylbenzyl)indolin-7-yl)pyridin-2-yl)-5-ethyl-1H-pyrazole-4-carboxylic acid] the figure was at most 0.5 nM; with `CCc1cc(CN2CC(C)(C)c3cccc(-c4cccc(-n5ncc(C(=O)O)c5CC)n4)c32)ccc1C1CCN(C(=O)C2CC2)CC1` [Example 23], 2 nM. In the case of `Cc1cc(C2CCN(C3CC3)CC2)ccc1CN1CCc2cccc(-c3cccc(-n4ncc(C(=O)O)c4C)n3)c21` [Example 24, 1-(6-(1-(4-(1-Cyclopropylpiperidin-4-yl)-2-methylbenzyl)indolin-7-yl)pyridin-2-yl)-5-methyl-1H-pyrazole-4-carboxylic Acid], the EC50 amounted to 7.9 nM. The result for `O=C(O)c1cnn(-c2cccc(-c3cccc4c3N(Cc3ccc5c(c3)CCN(Cc3ccccn3)C5)CC4)n2)c1C(F)(F)F` [Example 25, 1-(6-(1-((2-(Pyridin-2-ylmethyl)-1,2,3,4-tetrahydroisoquinolin-6-yl)methyl)indolin-7-yl)pyridin-2-yl)-5-(trifluromethyl)-1H-pyrazole-4-carboxylic Acid] reads 2.4 nM; that for `O=C(O)c1cnn(-c2cccc(-c3cccc4ccn(Cc5ccc(C6CCN(C(=O)C7CC7)CC6)cc5)c34)n2)c1C(F)(F)F` [Example 26, 1-(6-(1-(4-(1-(Cyclopropanecarbonyl)piperidin-4-yl)benzyl)-1H-indol-7-yl)pyridin-2-yl)-5-(trifluoromethyl)-1H-pyrazole-4-carboxylic Acid], 21 nM; that for `CCc1cc(Cn2ccc3cccc(-c4cccc(-n5ncc(C(=O)O)c5CC)n4)c32)ccc1C1CCN(C(=O)C2CC2)CC1` [Example 27], at most 0.5 nM.

For the compound `CCOC(=O)N1CCC(c2ccc(O[C@H]3CCc4cccc(-c5cccc(-n6ncc(C(=O)O)c6CC)n5)c43)cc2CC)CC1` [Example 29, (S)-1-(6-(3-(4-(1-(Ethoxycarbonyl)piperidin-4-yl)-3-ethylphenoxy)-2,3-dihydro-1H-inden-4-yl)pyridin-2-yl)-5-ethyl-1H-pyrazole-4-carboxylic Acid], the EC50 came to 1 nM. With `CCc1cc(O[C@H]2CCc3cccc(-c4cccc(-n5ncc(C(=O)O)c5CC)n4)c32)ccc1C1CCN(C(=O)[C@H](C)O)CC1` [Example 30] the figure was at most 0.5 nM.

For the origin of these results see patent publication US10550102B2, “Indane and indoline derivatives and the use thereof as soluble guanylate cyclase activators” (NOVARTIS AG, priority 2014, dated 2020).
